In patent US5063045A, “Method for evaluating antiallergic substances” (Nippon Zoki Pharmaceutical Co., Ltd., priority 1989, dated 1991):
Counter-ions that a name gives are not always drawn.

What was measured:
[1] = system: passively sensitized SART stressed guinea pigs; experiment: Nasal secretion (dyed thread length) after nasal provocation with ovalbumin in passively sensitized SART stressed guinea pigs; format: in vivo, guinea pig (male Hartley strain); settings: for Inhibition: inhibition of nasal secretion vs control
Description: Male Hartley strain guinea pigs weighing 300 to 500 g were used. The threshold of nasal mucosal sensitivity to methacholine of these animals was previously measured with a nasal thread dyed with fluorescein, and those guinea pigs having normal sensitivity were divided into groups of 7 or 8 animals making the average of the threshold of sensitivity substantially equal in each group. To load SART stress, the guinea pigs were kept in a thermostatic box at the environmental temperature of 0° C. and 24° C. alternately for one hour period from 10:00 a.m. to 5:00 p.m., and at 0° C. from 5:00 p.m. to 10:00 a.m. the next day. This stress loading was continued for 5 days prior to sensitization. The stress-loaded guinea pigs from the previous example were sensitized intraperitoneally using 20 μg of ovalbumin and 10 mg of aluminum hydroxide (adjuvant) in 1 ml of saline 7 times every 2 weeks. After 2 weeks of the sensitization, airway sensitization was performed by ultranebulization with 3 ml of 0.1% ovalbumin in saline for 5 consecutive days. One week later, nasal provocation was performed by application of 50 μl of 1% ovalbumin in saline on both anterior nares, and antiserum was collecting from guinea pigs showing typical nasal symptoms of nasal allergy such as sneeze, nasal secretion and asthma. This anti-ovalbumin serum was preserved at -80° C. The provocation was made by application of 50 μl of 1% ovalbumin on the left anterior naris 2 days after passive sensitization by intraperitoneally injecting 2 ml of diluted anti-ovalbumin serum from the previous example (diluted ratio;×1/8). […] Defatted cotton threads (No. 40/2) were dyed with 10% fluorescein-Na in physiological saline at one end, and were cut to a total length of 100 mm with the colored end 10 mm in length. About 15 mm of the colored end of the thread was inserted into the left anterior naris of the guinea pigs for 60 sec. The length of thread dyed with fluorescein due to nasal secretion was taken as a measure of the amount of nasal secretion. (A few threads can be used together when the amount of nasal secretion is large). […] The amount of nasal secretion was measured by the length of the colored portion of the thread dyed with fluorescein.

[2] = system: actively sensitized guinea pigs; experiment: Nasal secretion on repeated nasal provocations with ovalbumin in actively sensitized guinea pigs; format: in vivo, guinea pig; settings: 1.0 mg/kg/day p.o.
Description: Active sensitization was carried out in a manner similar to the preparation of anti-ovalbumin serum mentioned above. Namely, 1 μg ovalbumin and 5 mg of aluminum hydroxide (adjuvant) in 1 ml of saline were injected into guinea pigs intraperitoneally 6 times every 2 weeks.
Two weeks after the active sensitization with ovalbumin, 50 μl of 1% ovalbumin in saline was administered into both anterior nares to start nasal provocation with allergen. Then the nasal provocations with ovalbumin were repeated 1, 4, 7, 10 and 13 days after the first provocation.
Defatted cotton threads (No. 40/2) were dyed with 10% fluorescein-Na in physiological saline at one end, and were cut to a total length of 100 mm with the colored end 10 mm in length. About 15 mm of the colored end of the thread was inserted into the left anterior naris of the guinea pigs for 60 sec. The length of thread dyed with fluorescein due to nasal secretion was taken as a measure of the amount of nasal secretion. (A few threads can be used together when the amount of nasal secretion is large).
Enhanced nasal mucosal sensitivity was measured by using animals obtained by repeated nasal provocations with ovalbumin in actively sensitized guinea pigs with the allergen according to the method of Examples 4, 5 and 6. The inhibitory action for nasal secretion of Ketotifen fumarate (1.0 mg/kg/day, p.o.) was also measured using this assay system.

[3] = Ketotifen fumarate 0.3 mg/kg/day p.o.
[4] = Ketotifen fumarate 1.0 mg/kg/day p.o.
[5] = Ketotifen fumarate 3.0 mg/kg/day p.o.

Q: Which Nasal secretion [1, 3] does the source give for `CN1CCC(=C2c3ccccc3CC(=O)c3sccc32)CC1` [Ketotifen, Ketotifen fumarate] here?
A: 33.5 mm

Q: What about the Nasal secretion [1, 4] of the same compound?
A: 23.9 mm

Q: What about the Nasal secretion [1, 5] of the same compound?
A: 16.1 mm

Q: What about the Inhibition [1, 3] of the same compound?
A: 25.5%

Q: What about the Inhibition [1, 4] of the same compound?
A: 46.9%

Q: And the Inhibition [1, 5]?
A: 64.2%

Q: What about the Nasal secretion ([2]; 1st provocation with allergen) of the same compound?
A: 68.9 mm

Q: And the Nasal secretion ([2]; 2nd provocation with allergen (1 day))?
A: 54.1 mm

Q: And the Nasal secretion ([2]; 3rd provocation with allergen (4 days))?
A: 73.0 mm

Q: And the Nasal secretion ([2]; 4th provocation with allergen (7 days))?
A: 68.5 mm

Q: What about the Nasal secretion ([2]; 5th provocation with allergen (10 days)) of the same compound?
A: 77.3 mm

Q: And the Nasal secretion ([2]; 6th provocation with allergen (13 days))?
A: 96.9 mm
